# Results from the supplement of paper PMC10307832.
# Experiments:
# Test in all cases: relative viability (nuclei count vs DMSO), 5 days (fraction); higher = more cells survive
# Tozasertib + Navitoclax = compound: Cc1cc(Nc2cc(N3CCN(C)CC3)nc(Sc3ccc(NC(=O)C4CC4)cc3)n2)n[nH]1 [Tozasertib] + CC1(C)CCC(c2ccc(Cl)cc2)=C(CN2CCN(c3ccc(C(=O)NS(=O)(=O)c4ccc(N[C@H](CCN5CCOCC5)CSc5ccccc5)c(S(=O)(=O)C(F)(F)F)c4)cc3)CC2)C1 [Navitoclax] (partner 0.5 µM)
# Summary of the method: (§1)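 A single step with final 0.05% Triton X-100, 1% formaldehyde and 1 ug/ml Hoechst fixed the cells and stained nuclei 5 days after treatment. Lung cancer cell lines in 1536-well plates had been treated by pin tool the day after seeding with one drug alone or a fixed anchor-drug dose plus five library-drug doses (not always all listed) in √10 steps, and nuclei were counted on 4× images. Relative viability is the ratio of nuclei in treated wells to nuclei in vehicle wells, taken as the median of duplicate plates.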
# Tozasertib + Phenformin = compound: Cc1cc(Nc2cc(N3CCN(C)CC3)nc(Sc3ccc(NC(=O)C4CC4)cc3)n2)n[nH]1 [Tozasertib] + N=C(N)NC(=N)NCCc1ccccc1 [Phenformin] (partner 250 µM)
# Summary of the method: as §1
# Tozasertib + Pemetrexed = compound: Cc1cc(Nc2cc(N3CCN(C)CC3)nc(Sc3ccc(NC(=O)C4CC4)cc3)n2)n[nH]1 [Tozasertib] + Nc1nc2[nH]cc(CCc3ccc(C(=O)N[C@@H](CCC(=O)O)C(=O)O)cc3)c2c(=O)[nH]1 [Pemetrexed] (partner 0.2 µM)
# Summary of the method: as §1
# Tozasertib + AZD7762 = compound: Cc1cc(Nc2cc(N3CCN(C)CC3)nc(Sc3ccc(NC(=O)C4CC4)cc3)n2)n[nH]1 [Tozasertib] + NC(=O)Nc1cc(-c2cccc(F)c2)sc1C(=O)N[C@H]1CCCNC1 [AZD7762] (partner 0.2 µM)
# Summary of the method: as §1
# Tozasertib + Bortezomib = compound: Cc1cc(Nc2cc(N3CCN(C)CC3)nc(Sc3ccc(NC(=O)C4CC4)cc3)n2)n[nH]1 [Tozasertib] + CC(C)C[C@H](NC(=O)[C@H](Cc1ccccc1)NC(=O)c1cnccn1)B(O)O [Bortezomib] (partner 0.002 µM)
# Summary of the method: as §1
Cell Line,relative viability (Tozasertib + Navitoclax; first compound 0.004 µM),relative viability (Tozasertib + Navitoclax; first compound 0.01265 µM),relative viability (Tozasertib + Navitoclax; first compound 0.1265 µM),relative viability (Tozasertib + Phenformin; first compound 0.004 µM),relative viability (Tozasertib + Phenformin; first compound 0.01265 µM),relative viability (Tozasertib + Phenformin; first compound 0.04 µM),relative viability (Tozasertib + Phenformin; first compound 0.1265 µM),relative viability (Tozasertib + Pemetrexed; first compound 0.004 µM),relative viability (Tozasertib + Pemetrexed; first compound 0.01265 µM),relative viability (Tozasertib + Pemetrexed; first compound 0.04 µM),relative viability (Tozasertib + Pemetrexed; first compound 0.1265 µM),relative viability (Tozasertib + AZD7762; first compound 0.004 µM),relative viability (Tozasertib + AZD7762; first compound 0.01265 µM),relative viability (Tozasertib + AZD7762; first compound 0.04 µM),relative viability (Tozasertib + AZD7762; first compound 0.1265 µM),relative viability (Tozasertib + Bortezomib; first compound 0.004 µM),relative viability (Tozasertib + Bortezomib; first compound 0.1265 µM),relative viability (Tozasertib + Navitoclax; first compound 0.04 µM),relative viability (Tozasertib + Bortezomib; first compound 0.01265 µM),relative viability (Tozasertib + Bortezomib; first compound 0.04 µM)
HCC-78,0.822,0.633,0.539,0.957,0.608,0.699,0.525,0.938,0.901,0.919,0.881,0.806,0.519,0.668,0.477,0.504,0.497,,,
HCC-366,1.09,0.945,0.752,0.629,0.56,0.661,0.651,0.173,0.145,0.184,0.136,0.355,0.282,0.337,0.203,1.2,0.53,1.17,1,1.15
HCC-827,0.973,1.09,0.925,0.384,0.403,0.484,0.406,0.254,0.239,0.293,0.262,0.16,0.204,0.23,0.2,1.03,0.839,1.03,1.04,1.06
HOP-62,1.06,0.946,0.99,0.732,0.578,0.616,0.617,0.396,0.299,0.32,0.362,0.505,0.485,0.613,0.289,0.735,0.67,1.08,0.713,0.404
LC-2-ad,0.412,0.431,0.147,0.618,0.548,0.514,0.299,0.291,0.252,0.265,0.275,0.868,0.763,0.915,0.731,0.949,0.427,0.396,0.978,1.04
LCLC-97TM1,,0.434,0.242,0.438,0.437,0.459,0.407,0.191,0.157,0.15,0.18,0.166,0.194,0.164,0.211,0.933,0.106,0.466,0.271,0.624
LOU-NH91,0.426,0.704,0.665,,0.672,0.797,0.559,0.421,0.409,0.372,0.39,0.733,0.719,0.838,0.64,0.423,0.408,0.726,0.51,0.485
LU99A,0.739,0.636,0.414,0.903,0.819,0.773,0.646,0.165,0.155,0.207,0.193,0.314,0.328,0.306,0.169,1.1,,0.715,0.917,0.881
